Literature values in patent publication US20110168623A1, “FEED SIDE PASSAGE MATERIAL AND SPIRAL SEPARATION MEMBRANE ELEMENT” (priority 2008, published 2011).

Oc1cc(Cl)ccc1Oc1ccc(Cl)cc1Cl [triclosan, 2,4,4′-trichloro-2′-hydroxy diphenyl ether]
antibacterial effect on Pseudomonas aeruginosa (Pseudomonas aeruginosa): small or comparatively small antibacterial effect | antibacterial effect on Aspergillus niger (Aspergillus niger): small or comparatively small antibacterial effect | antibacterial effect on Candida yeast (Candida yeast): small or comparatively small antibacterial effect
